Test results: patent US9422267B2, “Fused pyrimidine compounds and use thereof” (Medivation Technologies, Inc., priority 2012, dated 2016)

Assays:
[1] = test system: Akt phosphorylation induced by IGF-1R in HT-29 cells; assay: Western blot analysis of Akt phosphorylation induced by IGF-1R; type: cell-based, Human; conditions: then IGF-1 10 ng/mL 10 min, HT-29
Protocol: Inhibition of Akt phosphorylation induced by IGF-1R was studied by western blot analysis. Human colon carcinoma HT-29 cells were seeded at a density of 8×10^4 cells/well in a 24-well plate and grown in DME/F12 media containing 10% FBS for 24 h. The cells were then depleted of serum by incubation in DME/F12 media lacking FBS for 24 h. […] […] Lysed cells were centrifuged at 13,000 rpm for 15 min and the protein concentration soluble fraction (supernatant) of each sample was determined using a BCA protein assay (Pierce).

IGF1R [2] = target: T1, IGF1R (Homo sapiens, UniProt P08069); assay: Caliper kinase profiling: IGF1R; type: biochemical; parameters: purchased Caliper LifeSciences (ProfilerPro Kinase Selectivity Assay Kits); conditions: 1 μM, read-out: Average % Inh @ 1 μM
Protocol: (§7) The compound was tested at concentrations of 1.0×10^−8 and 1.0×10^−9 M in the RapidKinase192™ panel in duplicate. […] The screening was performed using the Caliper EZReader2, a 4-sipper LabChip, and ProfilerPro Kinase Selectivity Assay Kits 1 and 2. The assay measures the conversion of a fluorescent peptide substrate to a phosphorylated product. Briefly, the reaction mixture was introduced through a capillary sipper onto the microfluidic chip, where the substrate and product were electrophoretically separated and detected by laser-induced fluorescence. The time-dependent fluorescence signal indicates the extent of the reaction.

KDR = KDR (Homo sapiens, UniProt P35968); assay: Caliper kinase profiling: KDR; type: biochemical; conditions: read-out: Average % Inh @ 1 μM
Protocol: as §7

HT-29 = assay: Cell Titer-Glo cell viability: HT-29; type: cell-based; conditions: Homo sapiens, HT-29, 72 h
Protocol: (§1) This assay quantitates the ATP present in order to determine the number of viable cells in culture. Briefly, the compounds were incubated with the cells for 72 h, followed by cell lysis. The resulting luminescent signal is proportional to the amount of ATP present and, therefore, directly proportional to the number of cells present in culture.
(§2) Compound nos. […] These cell lines are derived from human lung carcinoma, colon adenocarcinoma, colon adenocarcinoma, colon carcinoma, acute promyelocytic leukemia, colon adenocarcinoma, colon adenocarcinoma (from metastatic site lymph node), respectively.
(§3) Compounds 2b, 5, 6b and 10a were tested along with derivatives in viability assays as described above by Caliper LifeSciences Systems (Hanover, Md.), in A549, HCT-15, HCT-116, MCF-7, MDA-MB-231, OVCAR3, T47D, COLO205, HT-29, BT-20, HCC1187, HL-60, MDA-MB-175, SW-620, and UACC812 cells.

HCT-116 = assay: Cell Titer-Glo cell viability: HCT-116; type: cell-based; conditions: Homo sapiens, HCT116, colon carcinoma
Protocol: as §1, §2, §3

HCT-15 = assay: Cell Titer-Glo cell viability: HCT-15; type: cell-based; conditions: Homo sapiens, HCT-15, 72 h, HCT15, colon carcinoma
Protocol: as §1, §2, §3

A549 = assay: Cell Titer-Glo cell viability: A549; type: cell-based; conditions: Homo sapiens, A549, 72 h, A549, non-small lung carcinoma
Protocol: as §1, §2, §3

SW-620 = assay: Cell Titer-Glo cell viability: SW-620; type: cell-based; conditions: Homo sapiens, SW-620, 72 h, SW-620, metastatic colorectal cancer
Protocol: as §1, §2, §3

HL-60 = assay: Cell Titer-Glo cell viability: HL-60; type: cell-based, human; conditions: Homo sapiens, HL-60, 72 h
Protocol: as §1, §2, §3

COLO 205 = assay: Cell Titer-Glo cell viability: COLO 205; type: cell-based; conditions: Homo sapiens, COLO 205, 72 h
Protocol: as §1, §2, §3

IR = target: T2, IR (Homo sapiens, UniProt P06213); assay: In vitro IR enzymatic assay (ADP-Glo kinase assay); type: biochemical; conditions: activated IR; read-out: IC50
T2 construct: purchased Millipore 14-803
Protocol: (§4) IC50 values of the compounds of the invention against IGF-1R and IR were measured in vitro using an ADP-Glo kinase assay Kit (Promega). […] Kinase reactions in both assays were conducted at 30° C. for 20 min with increasing concentrations of compounds of the invention.

IGF1R [3] = target: T1, IGF1R; assay: In vitro IGF-1R enzymatic assay (ADP-Glo kinase assay); type: biochemical; parameters: purchased Millipore 14-802; conditions: activated IGF-1R; read-out: IC50
Protocol: as §4

AXL = target: T3, AXL (Homo sapiens, UniProt P30530); assay: Caliper kinase profiling: AXL; conditions: 0.01 μM
T3 sequence (P30530 26-894): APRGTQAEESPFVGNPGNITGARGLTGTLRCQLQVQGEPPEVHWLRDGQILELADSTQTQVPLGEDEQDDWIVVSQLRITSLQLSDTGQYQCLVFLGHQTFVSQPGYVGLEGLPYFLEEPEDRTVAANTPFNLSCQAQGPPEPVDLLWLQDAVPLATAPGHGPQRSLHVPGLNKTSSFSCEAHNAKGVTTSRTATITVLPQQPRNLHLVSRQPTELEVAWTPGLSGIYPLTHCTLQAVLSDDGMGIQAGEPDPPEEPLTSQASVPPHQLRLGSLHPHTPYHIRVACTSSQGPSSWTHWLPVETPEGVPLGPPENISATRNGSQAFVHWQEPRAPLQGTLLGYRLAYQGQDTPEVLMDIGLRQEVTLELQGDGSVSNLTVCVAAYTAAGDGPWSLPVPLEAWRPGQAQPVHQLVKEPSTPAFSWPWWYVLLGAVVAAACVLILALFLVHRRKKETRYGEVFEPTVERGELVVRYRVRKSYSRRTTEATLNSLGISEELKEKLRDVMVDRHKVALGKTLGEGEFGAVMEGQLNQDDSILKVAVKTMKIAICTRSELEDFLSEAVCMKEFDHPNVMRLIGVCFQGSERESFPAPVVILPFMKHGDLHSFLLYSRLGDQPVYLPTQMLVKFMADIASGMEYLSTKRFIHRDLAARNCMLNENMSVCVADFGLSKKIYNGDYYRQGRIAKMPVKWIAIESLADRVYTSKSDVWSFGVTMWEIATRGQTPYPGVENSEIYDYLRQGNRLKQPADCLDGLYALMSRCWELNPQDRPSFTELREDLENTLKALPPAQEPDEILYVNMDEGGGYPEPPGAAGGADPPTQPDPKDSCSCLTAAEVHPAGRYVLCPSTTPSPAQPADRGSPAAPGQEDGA
Protocol: as §7
(§8) The kinases tested were AurA, AurB, AurC, AXL, FAK2, IGF1R, InsR, Mer, MET, TrkB and TrkC.
(§9) The assays were conducted using the Caliper LabChip 3000 and a 12-sipper LabChip as described above.

TRKC (NTRK3) = TRKC (NTRK3) (Homo sapiens, UniProt Q16288); assay: Caliper kinase profiling: TRKC (NTRK3); conditions: 0.01 μM
Protocol: as §7, §8, §9

NTRK2 (TRKB) = NTRK2 (TRKB) (Homo sapiens, UniProt Q16620); assay: Caliper kinase profiling: NTRK2 (TRKB); conditions: 0.01 μM
Protocol: as §7, §8, §9

FAK2(PTK2b) = FAK2(PTK2b) (Homo sapiens, UniProt Q14289); assay: Caliper kinase assay: FAK2(PTK2b); conditions: 0.01 μM
Protocol: as §7, §8, §9

HCC 1187 = assay: Cell Titer-Glo cell viability: HCC 1187; type: cell-based; conditions: Homo sapiens, HCC1187; HCC-1187, breast cancer; 72 h incubation, Cell Titer-Glo
Protocol: (§5) Compound nos. […] This panel of cell lines includes an ER− breast carcinoma, primary breast ductal carcinoma, prostate adenocarcinoma, mammary adenocarcinoma, mammary ductal carcinoma, mammary ductal carcinoma, ovary adenocarcinoma, ER+ breast carcinoma, ER-HER2+ mammary ductal carcinoma and an ER+ mammary ductal carcinoma, respectively.
as §1, §3

T47D = assay: Cell Titer-Glo cell viability: T47D; type: cell-based; conditions: Homo sapiens, breast cancer, 72 h incubation, Cell Titer-Glo
Protocol: as §5, §1, §3

LNCaP = assay: Cell Titer-Glo cell viability: LNCaP; type: cell-based; conditions: Homo sapiens, Prostate cancer, 72 h incubation, Cell Titer-Glo
Protocol: as §5, §1

OVCAR-3 = assay: Cell Titer-Glo cell viability: OVCAR-3; type: cell-based; conditions: Homo sapiens, OVCAR3, ovarian cancer, 72 h incubation, Cell Titer-Glo
Protocol: as §5, §1, §3

MDA MB 175 = assay: Cell Titer-Glo cell viability: MDA MB 175; type: cell-based; conditions: MDA-MB-175, breast cancer; 72 h incubation, Cell Titer-Glo
Protocol: as §5, §1, §3
(§6) The inhibitory effects of Compound 8a were tested in two cell lines.

MCF-7 = assay: Cell Titer-Glo cell viability: MCF-7; type: cell-based; conditions: Homo sapiens; MCF7, breast cancer; 72 h incubation, Cell Titer-Glo
Protocol: as §5, §1, §3

UACC 812 = assay: Cell Titer-Glo cell viability: UACC 812; type: cell-based; conditions: Homo sapiens; UACC 812, breast cancer; 72 h incubation, Cell Titer-Glo
Protocol: as §5, §1, §3, §6

MDA MB 231 = assay: Cell Titer-Glo cell viability: MDA MB 231; type: cell-based; conditions: Homo sapiens, MDAMB231, breast cancer, 72 h incubation, Cell Titer-Glo
Protocol: as §5, §1, §3

BT-20 = assay: Cell Titer-Glo cell viability: BT-20; type: cell-based; conditions: Homo sapiens; BT-20, breast cancer; 72 h incubation, Cell Titer-Glo
Protocol: as §5, §1, §3

[4] = 72 h incubation, Cell Titer-Glo

Chain of FAK2(PTK2b) (Q14289 whole entry): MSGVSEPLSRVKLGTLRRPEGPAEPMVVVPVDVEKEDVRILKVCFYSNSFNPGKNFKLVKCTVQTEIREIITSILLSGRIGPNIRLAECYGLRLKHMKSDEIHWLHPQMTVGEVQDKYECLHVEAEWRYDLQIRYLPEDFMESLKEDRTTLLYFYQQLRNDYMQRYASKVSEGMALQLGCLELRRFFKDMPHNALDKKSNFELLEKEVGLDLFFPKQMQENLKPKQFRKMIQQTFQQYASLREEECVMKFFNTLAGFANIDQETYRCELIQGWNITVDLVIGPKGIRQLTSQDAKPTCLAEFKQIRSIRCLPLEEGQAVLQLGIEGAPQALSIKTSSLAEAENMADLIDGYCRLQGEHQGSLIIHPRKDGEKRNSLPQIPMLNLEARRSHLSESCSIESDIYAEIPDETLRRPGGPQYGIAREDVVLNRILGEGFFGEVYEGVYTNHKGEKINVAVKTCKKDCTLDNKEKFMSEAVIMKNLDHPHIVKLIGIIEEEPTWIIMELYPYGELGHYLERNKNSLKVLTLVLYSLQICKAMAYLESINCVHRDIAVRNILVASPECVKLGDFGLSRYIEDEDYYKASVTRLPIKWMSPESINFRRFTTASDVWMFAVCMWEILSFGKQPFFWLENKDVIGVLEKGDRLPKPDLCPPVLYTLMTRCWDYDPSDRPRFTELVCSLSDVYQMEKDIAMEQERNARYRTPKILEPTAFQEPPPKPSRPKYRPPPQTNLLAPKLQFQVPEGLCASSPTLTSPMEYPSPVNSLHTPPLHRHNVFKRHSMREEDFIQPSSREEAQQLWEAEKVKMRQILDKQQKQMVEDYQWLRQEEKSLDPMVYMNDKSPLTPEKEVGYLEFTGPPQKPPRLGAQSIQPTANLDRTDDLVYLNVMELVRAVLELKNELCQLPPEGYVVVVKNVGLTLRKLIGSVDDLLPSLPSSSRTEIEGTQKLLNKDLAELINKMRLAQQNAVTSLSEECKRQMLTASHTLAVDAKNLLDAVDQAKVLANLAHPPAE
Chain of NTRK2 (TRKB) (Q16620 32-822): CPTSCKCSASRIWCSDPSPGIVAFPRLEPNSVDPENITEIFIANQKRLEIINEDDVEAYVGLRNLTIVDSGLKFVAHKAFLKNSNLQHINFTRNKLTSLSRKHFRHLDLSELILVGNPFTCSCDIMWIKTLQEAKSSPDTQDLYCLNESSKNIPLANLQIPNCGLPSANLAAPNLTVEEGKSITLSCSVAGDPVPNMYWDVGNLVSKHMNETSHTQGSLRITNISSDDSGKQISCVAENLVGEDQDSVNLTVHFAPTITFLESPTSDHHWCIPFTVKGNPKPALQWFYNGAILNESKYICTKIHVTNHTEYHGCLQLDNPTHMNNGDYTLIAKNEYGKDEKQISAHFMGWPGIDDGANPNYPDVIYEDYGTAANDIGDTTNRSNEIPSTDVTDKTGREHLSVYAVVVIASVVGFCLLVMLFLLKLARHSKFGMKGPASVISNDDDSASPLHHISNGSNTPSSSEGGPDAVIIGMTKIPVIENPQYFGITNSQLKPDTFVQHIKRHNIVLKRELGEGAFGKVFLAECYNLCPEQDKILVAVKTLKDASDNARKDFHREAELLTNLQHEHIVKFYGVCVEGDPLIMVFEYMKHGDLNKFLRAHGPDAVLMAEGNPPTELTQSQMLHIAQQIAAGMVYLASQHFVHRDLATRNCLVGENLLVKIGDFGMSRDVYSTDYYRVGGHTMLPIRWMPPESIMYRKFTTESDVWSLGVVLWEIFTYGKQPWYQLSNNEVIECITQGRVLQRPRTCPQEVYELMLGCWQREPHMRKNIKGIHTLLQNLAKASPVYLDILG
Chain of TRKC (NTRK3) (Q16288 32-839): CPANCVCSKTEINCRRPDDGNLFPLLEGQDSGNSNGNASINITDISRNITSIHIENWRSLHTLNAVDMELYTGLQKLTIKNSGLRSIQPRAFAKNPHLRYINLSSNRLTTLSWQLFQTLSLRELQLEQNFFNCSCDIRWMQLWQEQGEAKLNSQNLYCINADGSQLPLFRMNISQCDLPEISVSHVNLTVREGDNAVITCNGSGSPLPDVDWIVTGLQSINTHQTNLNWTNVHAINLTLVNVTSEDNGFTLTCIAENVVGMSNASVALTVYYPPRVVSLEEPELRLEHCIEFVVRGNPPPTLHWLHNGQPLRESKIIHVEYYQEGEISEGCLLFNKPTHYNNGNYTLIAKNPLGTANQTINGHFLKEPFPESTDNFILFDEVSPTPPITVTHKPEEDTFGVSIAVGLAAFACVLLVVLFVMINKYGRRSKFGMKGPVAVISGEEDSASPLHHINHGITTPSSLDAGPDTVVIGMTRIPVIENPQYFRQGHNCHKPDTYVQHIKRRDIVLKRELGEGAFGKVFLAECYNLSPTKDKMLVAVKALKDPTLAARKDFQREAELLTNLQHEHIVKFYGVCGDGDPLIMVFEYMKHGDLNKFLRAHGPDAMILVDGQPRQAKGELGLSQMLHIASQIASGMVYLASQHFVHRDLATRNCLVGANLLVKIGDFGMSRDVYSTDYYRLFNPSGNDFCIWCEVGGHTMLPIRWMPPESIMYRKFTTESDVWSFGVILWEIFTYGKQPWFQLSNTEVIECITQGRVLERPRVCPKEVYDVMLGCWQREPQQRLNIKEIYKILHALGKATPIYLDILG
T1 sequence (P08069 31-1367): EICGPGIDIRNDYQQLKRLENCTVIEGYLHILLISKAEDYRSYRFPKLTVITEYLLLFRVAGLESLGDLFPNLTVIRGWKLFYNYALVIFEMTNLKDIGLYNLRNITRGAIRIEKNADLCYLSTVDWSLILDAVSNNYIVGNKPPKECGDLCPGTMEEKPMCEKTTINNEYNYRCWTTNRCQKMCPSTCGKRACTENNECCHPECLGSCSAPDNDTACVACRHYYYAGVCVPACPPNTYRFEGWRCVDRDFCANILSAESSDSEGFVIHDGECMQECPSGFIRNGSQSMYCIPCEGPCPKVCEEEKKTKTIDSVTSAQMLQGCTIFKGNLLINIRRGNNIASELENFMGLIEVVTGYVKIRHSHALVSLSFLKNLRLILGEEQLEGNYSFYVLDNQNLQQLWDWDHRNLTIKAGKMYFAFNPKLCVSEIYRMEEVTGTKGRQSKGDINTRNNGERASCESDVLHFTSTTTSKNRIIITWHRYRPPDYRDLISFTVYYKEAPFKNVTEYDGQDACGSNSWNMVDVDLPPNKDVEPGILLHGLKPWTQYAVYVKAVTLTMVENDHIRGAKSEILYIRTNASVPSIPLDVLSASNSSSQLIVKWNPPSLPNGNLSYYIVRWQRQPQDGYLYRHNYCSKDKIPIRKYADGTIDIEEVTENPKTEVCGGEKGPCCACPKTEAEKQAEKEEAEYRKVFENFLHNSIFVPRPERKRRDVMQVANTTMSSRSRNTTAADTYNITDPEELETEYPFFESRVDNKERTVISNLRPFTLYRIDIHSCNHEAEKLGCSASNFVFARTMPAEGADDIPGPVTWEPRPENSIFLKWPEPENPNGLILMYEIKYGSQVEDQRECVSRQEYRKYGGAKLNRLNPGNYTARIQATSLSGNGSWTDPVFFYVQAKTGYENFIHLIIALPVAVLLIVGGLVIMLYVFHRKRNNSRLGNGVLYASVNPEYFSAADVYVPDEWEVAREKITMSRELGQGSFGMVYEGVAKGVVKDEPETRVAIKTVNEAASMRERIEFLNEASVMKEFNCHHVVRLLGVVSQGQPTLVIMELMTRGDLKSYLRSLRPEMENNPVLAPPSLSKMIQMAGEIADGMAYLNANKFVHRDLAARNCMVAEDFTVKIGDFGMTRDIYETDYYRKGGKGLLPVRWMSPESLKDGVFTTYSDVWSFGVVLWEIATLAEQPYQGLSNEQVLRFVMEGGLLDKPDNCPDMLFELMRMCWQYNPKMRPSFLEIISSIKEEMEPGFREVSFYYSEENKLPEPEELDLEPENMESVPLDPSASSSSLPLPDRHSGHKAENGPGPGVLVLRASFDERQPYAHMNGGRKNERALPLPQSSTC

Structure (SMILES): CC1(O)CC(c2nc(-c3ccc4ccc(-c5ccccc5)nc4c3)c3c(N)nccn23)C1 (stereo not drawn) [OSI-906, 3-[8-Amino-1-(2-phenyl-7-quinolyl)imidazo[1,5-a]pyrazin-3-yl]-1-methyl-cyclobutanol, reference compound]
- phosphorylated AKT levels normalized to actin levels (pAKT/actin) ([1]; 1 nM compound 2 h): 0.85
- phosphorylated AKT levels normalized to actin levels (pAKT/actin) ([1]; 100 nM compound 2 h): 0.40
- inhibition at 1 µM (IGF1R [2]): > 60%
- inhibition at 1 µM (KDR): 40 to 59%
- IC50 (HT-29; HT29, colon adenocarcinoma (second entry of the table), 72 h): < 10 µM
- IC50 (HT-29; HT-29, colon cancer, 72 h): < 100 µM
- IC50 (HCT-116; 72 h): < 100 µM
- IC50 (HCT-15; 72 h): < 100 µM
- IC50 (A549; 72 h): 10 µM
- IC50 (SW-620; 72 h): < 100 µM
- IC50 (HL-60; HL60, promyelocytic leukemia (second entry of the table), 72 h): < 10 µM
- IC50 (HL-60; HL-60, promyelocytic leukemia, 72 h): < 100 µM
- IC50 (COLO 205; COLO-205, colon adenocarcinoma, 72 h): 1 µM

Structure (SMILES): O=C(Nc1ccc(F)nc1)C1CC(O)CN1c1nc2c(c(Nc3cc(C4CC4)[nH]n3)n1)CCC2 (single isomer, unassigned) [Compound 10d, 1-(4-(5-cyclopropyl-1H-pyrazol-3-ylamino)-6,7-dihydro-5H-cyclopenta[d]pyrimidin-2-yl)-N-(6-fluoropyridin-3-yl)-4-hydroxypyrrolidine-2-carboxamide]
- IC50 (IR): 0.0072 µM
- IC50 (IGF1R [3]): 0.0058 µM
- inhibition of AXL in panel of 11 kinases (AXL): strongly inhibited
- inhibition of TrkC in panel of 11 kinases (TRKC (NTRK3)): strongly inhibited
- inhibition of TrkB in panel of 11 kinases (NTRK2 (TRKB)): strongly inhibited
- inhibition of FAK2 in panel of 11 kinases (FAK2(PTK2b)): strongly inhibited

Structure (SMILES): O=C(Nc1ccc(F)nc1)C1CC(O)CN1c1nc2c(c(Nc3cc(C4CC4)[nH]n3)n1)CCC2 (single isomer, unassigned) [Compound 10a]
- IC50 (HCC 1187): < 1 µM
- IC50 (T47D): 1 µM
- phosphorylated AKT levels normalized to actin levels (pAKT/actin) ([1]; 1 nM compound 2 h): 0.54
- phosphorylated AKT levels normalized to actin levels (pAKT/actin) ([1]; 10 nM compound 2 h): 0.00
- phosphorylated AKT levels normalized to actin levels (pAKT/actin) ([1]; 100 nM compound 2 h): 0.01
- IC50 (LNCaP): < 1 µM
- IC50 (OVCAR-3): 1 µM
- IC50 (MDA MB 175): < 10 µM
- IC50 (MCF-7): < 1 µM
- IC50 (HT-29; HT-29, colon adenocarcinoma, 72 h incubation, Cell Titer-Glo): < 0.1 µM
- IC50 (HCT-116; [4]): 10 µM
- IC50 (UACC 812): < 10 µM
- IC50 (HCT-15; [4]): < 100 µM
- inhibition of AXL in panel of 11 kinases (AXL): strongly inhibited
- inhibition of TrkC in panel of 11 kinases (TRKC (NTRK3)): strongly inhibited
- IC50 (A549; [4]): < 10 µM
- inhibition of TrkB in panel of 11 kinases (NTRK2 (TRKB)): strongly inhibited
- IC50 (MDA MB 231): 10 µM
- inhibition of FAK2 in panel of 11 kinases (FAK2(PTK2b)): strongly inhibited
- IC50 (SW-620; [4]): < 10 µM
- IC50 (HL-60; HL60, promyelocytic leukemia, 72 h incubation, Cell Titer-Glo): 0.1 µM
- IC50 (BT-20): < 10 µM
- IC50 (COLO 205; COLO205, colon cancer, 72 h incubation, Cell Titer-Glo): < 0.1 µM
